Data from patent US4209442A, “Angiotensin II analogs and process for the preparation thereof” (Richter Gedeon Vegyeszeti Gyar Rt., priority 1977, dated 1980).

Tested on: hypertension induced by angiotensin II
Experiment: Decrease in blood pressure after intravenous administration, under i.v. infusion of angiotensin II
Format: in vivo, tomcats
Settings: single dose, angiotensin II infusion 0.5 μg/kg/min, average of 6 experiments
Procedure: The antagonistic activity of the compounds having the formula I was tested on tomcats. The blood pressure was measured on the cervical artery. The tests were performed by introducing a Hypertension (CIBA) infusion into a lateral femoral vane at a speed of 0.5 μg/kg/min. When the increase in blood pressure was stabilized, the aqueous, physiological or carrier-containing solutions of the test compounds and Saralasin were administered in a single dose, intravenously or subcutaneously, and the decrease in blood pressure was measured. In the Table 1 the decrease in the arterial blood pressure under the influence of an intravenous administration of the test compounds is illustrated. For comparision Saralasin is used. The data set forth in the Table 1 were obtained by calculating the average of the results of 6 experiments. The margins of error indicate the scatter of the main value.

Row | Compound | Decrease in blood pressure (mmHg) after administration of 10 μg/kg i.v. doses | Decrease in blood pressure (mmHg) after administration of 20 /μg/kg i.v. doses (20 μg/kg i.v.)
1 | CNCC(=O)N[C@@H](CCCN=C(N)N)C(=O)N[C@H](C(=O)N[C@@H](Cc1ccc(O)cc1)C(=O)N[C@H](C(=O)N[C@@H](Cc1cnc[nH]1)C(=O)N1CCC[C@H]1C(=O)N[C@@H](C)C(=O)O)C(C)C)C(C)C [Saralasin, reference compound] | -41 ± 2.5 mmHg | 
2 | (Hydroxyacetyl^1,Thr(Me)^8)-angiotensin II [(Hydroxyacetyl^1,Thr(Me)^8)-AngII] | -33 ± 5.3 mmHg | -38 ± 4.1 mmHg
